From ChEMBL document CHEMBL1154550, “Isolation of psammaplin A 11'-sulfate and bisaprasin 11'-sulfate from the marine sponge Aplysinella rhax” (J Nat Prod, 2000)
Activity calls are given as the source filed them. The calls are words filed in the database; no cut-off is given here.

Tests used:
[1] = molecular target: T1, Adenosine receptor A1 (Rattus norvegicus, UniProt P25099); experiment: Displacement of […] from adenosine A1 receptor in rat brain; assay type: tissue-based
T1 sequence (P25099 whole entry): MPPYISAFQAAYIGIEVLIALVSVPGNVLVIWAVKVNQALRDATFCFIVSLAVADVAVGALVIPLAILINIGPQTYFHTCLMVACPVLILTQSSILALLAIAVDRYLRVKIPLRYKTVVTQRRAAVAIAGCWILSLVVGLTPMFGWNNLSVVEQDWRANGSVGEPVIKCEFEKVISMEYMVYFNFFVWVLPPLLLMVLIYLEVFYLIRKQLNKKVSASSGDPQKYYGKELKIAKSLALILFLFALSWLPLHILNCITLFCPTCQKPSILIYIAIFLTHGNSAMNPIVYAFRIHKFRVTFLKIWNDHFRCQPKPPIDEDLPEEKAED

[2] = molecular target: T2, Adenosine receptor A1 (Rattus norvegicus) (UniProt P25099); experiment: Displacement of […] from adenosine A1 receptor in rat brain up to 2.2 mM; assay type: tissue-based
T2 sequence (whole entry): T1 sequence (P25099 whole entry)

IC50 [1] [µM] | Activity [2] | SMILES
90 |  | O=C(NCCSSCCNC(=O)/C(Cc1ccc(OS(=O)(=O)O)c(Br)c1)=N/O)/C(Cc1ccc(O)c(Br)c1)=N/O
20 |  | O=C(NCCSSCCNC(=O)/C(Cc1ccc(O)c(Br)c1)=N/O)/C(Cc1ccc(O)c(Br)c1)=N/O [PSAMMAPLIN A]
 | inactive | O=C(NCCSSCCNC(=O)/C(Cc1cc(Br)c(O)c(-c2cc(C/C(=N\O)C(=O)NCCSSCCNC(=O)/C(Cc3ccc(OS(=O)(=O)O)c(Br)c3)=N/O)cc(Br)c2O)c1)=N/O)/C(Cc1ccc(O)c(Br)c1)=N/O
